{"source": "patent US20110275574A1", "about": "“METHOD OF INHIBITING PROLIFERATION OF HEPATIC STELLATE CELLS” (Agency for Science, Technology and Research, priority 2009, published 2011)", "assay_type_in_all_cases": "cell-based, rat", "key": {"HSC-2 cells [1]": {"tested_on": "HSC-2 cells", "assay": "Cell counting (proliferation) of HSC-2 cells", "conditions": "HSC-2, Cx43 siRNA 10 nM, 48 hours, versus mock-transfected", "protocol": "(§1) Snai1 and connexin 43 siRNAs transfection: Shortly before transfection, 1−2×10^6 HSC-2 cells were seeded in 100 mm cell culture dishes and incubated at 37° C. The siRNA was added at a final concentration of 10 nM to 1 ml of D-MEM without serum, followed by 120 μl of HiPerfect transfection reagent (Qiagen, Germany) and incubated for 10 min. The siRNA/transfection reagent solution was added drop-wise to the cells and incubated for 24 or 48 hours. As mock control, only HiPerfect reagent was added to the cells. The Snai1 siRNAs used were Rn_Snai1—1 and Rn_Snai1—3 and the Cx43 siRNAs used were Rn_Gja1—1 and Rn_Gja1—5 (Qiagen, Germany).\nCell counting: After treatment, cells were washed once with PBS and detached using trypsin/EDTA. Following centrifugation at 800 rpm for 4 min, the cell pellet was resuspended in 1 ml D-MEM and the cells were counted using the forward scatter function of the GUAVA PCA-96 (Guava Technologies, CA, USA)."}, "Cx43 mRNA": {"tested_on": "Cx43 mRNA", "assay": "Cx43 mRNA expression by quantitative real-time PCR in HSC-2 cells", "conditions": "HSC-2, Cx43 siRNA 10 nM, 48 hours, relative to mock-transfected", "protocol": "Cell culture conditions: Primary hepatic stellate cells were isolated from male Wistar rats according to a previously published procedure (Weiskirchen and Gressner, 2005). The protocol was approved by the Institutional Animal Care and Use Committee (IACUC) of the Biomedical Research Council of Singapore. The purity of primary HSCs was assessed by vitamin A autofluorescence one day after isolation. The cell line HSC-2 was described elsewhere (Maubach et al., 2008). All cells were cultivated in a humidified 37° C. incubator circulated with 5% CO2. High glucose Dulbecco's modified Eagle medium (D-MEM) containing 10% fetal bovine serum, 100 units/ml penicillin and 100 μg/ml streptomycin was used during cell culture. Trypsin-EDTA was purchased from Biochrome (Germany). All other cell culture reagents were from Invitrogen (CA, USA).\nHepatic stellate cells treatment with recombinant human TGF-β1: Twenty four hours prior to treatment, HSCs were seeded in 75 cm^2 tissue culture flasks. At 60-70% cell confluence, recombinant human TGF-β1 (hTGF-[3]) was added at a final concentration of 1 or 10 ng/ml and incubated for 2, 6, 10, 24 or 30 hours. For the control treatment, only phosphate-buffered saline (PBS) was given to the cells. In some experiments, HSC-2 cells were treated with bisindolylmaleimide I (BIM I) at a final concentration of 5 μM for 30 min before treatment with 10 ng/ml hTGF-β1.\nReverse transcription and quantitative PCR: Total RNA was isolated from cells according to the manufacturer's protocol (RNA II kit, Machery-Nagel, Germany). All reagents for reverse transcription and real-time PCR were from Applied Biosystems (CA, USA). One microgram of total RNA was reverse transcribed to cDNA in a total reaction volume of 50 μl at conditions described in the RT kit (N8080234). Real-time PCR reactions were performed using the Fast Real Time PCR System (Applied Biosystems). Three microlitres of cDNA were used in a PCR reaction volume of 10 μl. The Taqman probes for target genes Cx43 and Snai1, as well as for endogenous control β-actin were Rn01433957_m1, Rn00441533_g1 and 4352341E, respectively. The PCR conditions were 95° C. for 20 s and 40 cycles of amplification at 95° C. for 3 s and 60° C. for 30 s.\nas §1"}, "HSC-2 cells [2]": {"tested_on": "HSC-2 cells", "assay": "gap-FRAP analysis of gap junction intercellular communication", "conditions": "HSC-2, 40 μM carbenoxolone, 6 hours", "protocol": "Analysis of gap junction intercellular communication: HSC-2 cells were grown in a 60 mm cell culture dish overnight. At 90% cell confluence, hTGF-β1 (final concentration 10 ng/ml) or carbenoxolone (final concentration 40 μM) was added and incubated for 6 hours. As control, only PBS was given to the cells. Alternatively, BIM I (final concentration 5 μM) was added 30 minutes before the addition of hTGF-[3]. After a brief rinse in PBS, cells were incubated in D-MEM without phenol red, containing 5,6-carboxyfluorescein diacetate (Research Organics, USA) at a final concentration of 50 μg/ml and incubated in a 37° C. humidified incubator for 30 min. The cells were then rinsed twice with PBS and D-MEM without phenol red was added before proceeding with the Fluorescence Recovery After Photobleaching (FRAP) assay. The FRAP application included in the software package of the LEICA TCS SP2 equipped with the DM6000 (LEICA, Germany) was used. A 63× immersed objective (Leica HCX APO L U-V-I 63×/0.90 Water UV) was used. The argon laser at 488 nm was used for excitation and the fluorescence signal was captured between 500 and 535 nm. The conditions were as follows: 5 pre-bleach scans at 10% laser power, 40 bleach scans at 100% laser power followed by 60 post-bleach scans at 15 seconds intervals. During the bleaching period, the Zoom mode was used to bleach a single cell (target cell) defined in a region of interest (ROI). All data were corrected for photobleaching during post-bleach acquisition using the whole scanned area. The time constant of recovery, tau (τ), was estimated by fitting the corrected experimental data (OriginPro 7 SR4, OriginLab USA) to the following function: F(t)=F0+(F∞−F0)(1−e^−t/τ), with F(t) being the corrected fluorescence intensity and F∞ being the asymptotic value of the fluorescence intensity. The transfer constant (k) was calculated from k=1/τ and normalized by dividing by the number of cells in contact with the target cell. The fluorescence recovery for each cell was about 50%."}}, "note": "d = 2'-deoxy (DNA); r = 2'-OH (RNA)", "data": [{"compound": "Cx43 siRNA 5: Cx43 siRNA, sense strand r(GGU AAG CUU CCC UGG UCU A)dTdT [SEQ ID NO: 9], antisense SEQ ID NO: 10 (Qiagen) (sense GGUAAGCUUCCCUGGUCUATT; antisense UAGACCAGGGAAGCUUACCTT; sugars from the 5' end r19 d2, backbone not given here)", "values": [{"measurement": "total number of cells", "setting": "HSC-2 cells [1]", "value": "significant decline"}, {"measurement": "down-regulation of Cx43 mRNA", "setting": "Cx43 mRNA", "value": "about 65%"}]}, {"compound": "CC1(C)[C@@H](OC(=O)CCC(=O)O)CC[C@]2(C)[C@H]3C(=O)C=C4[C@@H]5C[C@@](C)(C(=O)O)CC[C@]5(C)CC[C@@]4(C)[C@]3(C)CC[C@@H]12", "note": "[carbenoxolone]", "values": [{"measurement": "dye transfer rate (k), reduced to", "setting": "HSC-2 cells [2]", "value": "about 50%"}]}]}
